Data from a compilation of properties of binary mixtures (doi:10.1016/j.molliq.2016.03.072).

Assay: xn = mol fraction of the nth substance listed
Conditions: 101 kPa

CN(C)C=O + CCCC[n+]1ccn(C)c1.F[P-](F)(F)(F)(F)F
x1 = 1
Conditions	viscosity [mPa·s]
303.15 K	0.83
313.15 K	0.74
323.15 K	0.66

CCCC[n+]1ccn(C)c1.F[P-](F)(F)(F)(F)F + CN(C)C=O
viscosity [mPa·s]
Conditions	x2 = 0	x2 = 0.3028	x2 = 0.4909	x2 = 0.6262	x2 = 0.7227	x2 = 0.7963	x2 = 0.8543	x2 = 0.9012	x2 = 0.9399	x2 = 0.9724
303.15 K	–	52.1	15.21	6.21	3.48	–	1.93	1.5	–	0.98
313.15 K	129.7	28.84	–	5.2	3.33	2.12	–	1.26	1.05	0.83
323.15 K	88.5	25.91	–	–	2.2	1.82	1.51	1.08	0.91	0.77
